Laboratory results as given in patent US20260324639A1, “MICROBIOCIDAL PYRAZOLE DERIVATIVES” (SYNGENTA CROP PROTECTION AG, priority 2022, published 2026).

What was measured:
Alternaria solani = assay: Alternaria solani/tomato/leaf disc (early blight); format: in vivo; conditions: 200 ppm; tomato leaf disks cv. Baby; inoculated 2 days after application; assessed 5-7 days after application
Procedure: Tomato leaf disks cv. Baby are placed on agar in multiwell plates (24-well format) and sprayed with the formulated test compound diluted in water. The leaf disks are inoculated with a spore suspension of the fungus 2 days after application. The inoculated leaf disks are incubated at 23° C./21° C. (day/night) and 80% rh under a light regime of 12/12 h (light/dark) in a climate cabinet and the activity of a compound is assessed as percent disease control compared to untreated when an appropriate level of disease damage appears on untreated check disk leaf disks (5-7 days after application).

Botryotinia fuckeliana = Botryotinia fuckeliana (Botrytis cinerea)/liquid culture (gray mould); format: cell-based; conditions: liquid culture, Vogels broth, 24° C., growth inhibition photometric 3-4 days after application, read-out: control of Botryotinia fuckeliana compared to untreated control
Procedure: (§1) Conidia of the fungus from cryogenic storage are directly mixed into nutrient broth (Vogels broth). After placing a (DMSO) solution of test compound into a microtiter plate (96-well format), the nutrient broth containing the fungal spores is added. The test plates are incubated at 24° C. and the inhibition of growth is determined photometrically 3-4 days after application.

Glomerella lagenarium = Glomerella lagenarium (Colletotrichum lagenarium)/liquid culture (anthracnose); format: cell-based; conditions: Colletotrichum orbiculare, liquid culture, PDB, 24° C., growth inhibition photometric 3-4 days after application, read-out: control of Glomerella lagenarium compared to untreated control
Procedure: as §1, with “(PDB potato dextrose” for “(Vogels”, “measured” for “determined”

[1] = system: Blumeria graminis f. sp. tritici; assay: Blumeria graminis f. sp. tritici/wheat/leaf disc preventative (powdery mildew on wheat); format: in vivo; conditions: 200 ppm, wheat leaf segments cv. Kanzler, inoculated 1 day after application, assessed 6-8 days after application
Procedure: Wheat leaf segments cv. Kanzler are placed on agar in a multiwell plate (24-well format) and sprayed with the formulated test compound diluted in water. The leaf disks are inoculated by shaking powdery mildew infected plants above the test plates 1 day after application. The inoculated leaf disks are incubated at 20° C. and 60% rh under a light regime of 24 h darkness followed by 12 h light/12 h darkness in a climate chamber and the activity of a compound is assessed as percent disease control compared to untreated when an appropriate level of disease damage appears on untreated check leaf segments (6-8 days after application).

Fusarium culmorum = assay: microbe, parasite or virus in culture; format: cell-based; conditions: read-out: control of Fusarium culmorum compared to untreated control
Procedure: as §1, with “(PDB potato dextrose” for “(Vogels”

Phaeosphaeria nodorum = Phaeosphaeria nodorum (Septoria nodorum)/wheat/leaf disc preventative (glume blotch); format: in vivo; conditions: 200 ppm, wheat leaf segments cv. Kanzler, inoculated 2 days after application, assessed 5-7 days after application
Procedure: (§2) Wheat leaf segments cv. Kanzler are placed on agar in a multiwell plate (24-well format) and sprayed with the formulated test compound diluted in water. The leaf disks are inoculated with a spore suspension of the fungus 2 days after application. The inoculated test leaf disks are incubated at 20° C. and 75% rh under a light regime of 12 h light/12 h darkness in a climate cabinet and the activity of a compound is assessed as percent disease control compared to untreated when an appropriate level of disease damage appears in untreated check leaf disks (5-7 days after application).

Monographella nivalis = Monographella nivalis (Microdochium nivale)/liquid culture (foot rot cereals); format: cell-based; conditions: liquid culture, PDB, 24° C., growth inhibition photometric 4-5 days after application, read-out: control of Monographella nivalis compared to untreated control
Procedure: as §1, with “(PDB potato dextrose” for “(Vogels”, “4-5” for “3-4”

Mycosphaerella arachidis = Mycosphaerella arachidis (Cercospora arachidicola)/liquid culture (early leaf spot); format: cell-based; conditions: liquid culture, PDB, 24° C., growth inhibition photometric 4-5 days after application, read-out: control of Mycosphaerella arachidis compared to untreated control
Procedure: as §1, with “(PDB potato dextrose” for “(Vogels”, “4-5” for “3-4”

[2] = system: Puccinia recondita f. sp. tritici; assay: Puccinia recondita f. sp. tritici/wheat/leaf disc curative (brown rust); format: in vivo; conditions: 200 ppm, applied 1 day after inoculation, wheat leaf segments cv. Kanzler, assessed 6-8 days after application
Procedure: Wheat leaf segments cv. Kanzler are placed on agar in multiwell plates (24-well format). The leaf segments are inoculated with a spore suspension of the fungus. Plates are stored in darkness at 19° C. and 75% rh. The formulated test compound diluted in water is applied 1 day after inoculation. The leaf segments are incubated at 19° C. and 75% rh under a light regime of 12 h light/12 h darkness in a climate cabinet and the activity of a compound is assessed as percent disease control compared to untreated when an appropriate level of disease damage appears in untreated check leaf segments (6-8 days after application).

[3] = system: Puccinia recondita f. sp. tritici; assay: Puccinia recondita f. sp. tritici/wheat/leaf disc preventative (brown rust); format: in vivo; conditions: 200 ppm, inoculated 1 day after application, wheat leaf segments cv. Kanzler, assessed 7-9 days after application
Procedure: Wheat leaf segments cv. Kanzler are placed on agar in multiwell plates (24-well format) and sprayed with the formulated test compound diluted in water. The leaf disks are inoculated with a spore suspension of the fungus 1 day after application. The inoculated leaf segments are incubated at 19° C. and 75% rh under a light regime of 12 h light/12 h darkness in a climate cabinet and the activity of a compound is assessed as percent disease control compared to untreated when an appropriate level of disease damage appears in untreated check leaf segments (7-9 days after application).

Pyrenophora teres = assay: Pyrenophora teres/barley/leaf disc preventative (net blotch); format: in vivo; conditions: 200 ppm, barley leaf segments cv. Hasso, inoculated 2 days after application, assessed 5-7 days after application
Procedure: as §2, with “Barley” for “Wheat”, “Hasso” for “Kanzler”, “segments” for “disks”, “inoculated” for “inoculated test”, “65%” for “75%”, “as” for “as percent”

Sclerotinia sclerotiorum = assay: Sclerotinia sclerotiorum/liquid culture (cottony rot); format: cell-based; conditions: liquid culture (mycelia fragments), PDB, 24° C., growth inhibition photometric 3-4 days after application, read-out: control of Sclerotinia sclerotiorum compared to untreated control
Procedure: as §1, with “Mycelia fragments of a newly grown liquid culture” for “Conidia”, “fungus” for “fungus from cryogenic storage”, “(PDB potato dextrose” for “(Vogels”, “format)” for “format),”, “material” for “spores”

[4] = system: Mycosphaerella graminicola; assay: Mycosphaerella graminicola (Septoria tritici)/liquid culture (Septoria blotch); format: cell-based; conditions: Zymoseptoria tritici, liquid culture, PDB, 24° C., growth inhibition photometric 4-5 days after application, read-out: control of Mycosphaerella graminicola compared to untreated control
Procedure: as §1, with “(PDB potato dextrose” for “(Vogels”, “4-5” for “3-4”

Gibberella zeae = format: in vivo, Gibberella zeae (Fusarium graminearum); conditions: 200 ppm; preventative; wheat spikelets cv. Monsun; inoculated one day after application; assessed 6-8 days after application

Compound: Cc1c([C@H]2CN(C(=O)c3nnn(-c4ccc(F)cc4F)n3)[C@@H](C)c3ccccc32)cnn1C (racemic) [Compound P-42, [2-(2,4-difluorophenyl)tetrazol-5-yl]-[rac-(1S,4S)-4-(1,5-dimethylpyrazol-4-yl)-1-methyl-3,4-dihydro-1H-isoquinolin-2-yl]methanone]
- control of Alternaria solani compared to untreated control (Alternaria solani): at least 80%
- inhibition of growth at 20 ppm (Botryotinia fuckeliana): ≥ 80%
- inhibition of growth at 20 ppm (Glomerella lagenarium): ≥ 80%
- control of Blumeria graminis f. sp. tritici compared to untreated control [1]: at least 80%
- inhibition of growth at 20 ppm (Fusarium culmorum): ≥ 80%
- control of Phaeosphaeria nodorum compared to untreated control (Phaeosphaeria nodorum): at least 80%
- inhibition of growth at 20 ppm (Monographella nivalis): ≥ 80%
- inhibition of growth at 20 ppm (Mycosphaerella arachidis): ≥ 80%
- control of Puccinia recondita f. sp. tritici compared to untreated control [2]: at least 80%
- control of Puccinia recondita f. sp. tritici compared to untreated control [3]: at least 80%
- control of Pyrenophora teres compared to untreated control (Pyrenophora teres): at least 80%
- inhibition of growth at 20 ppm (Sclerotinia sclerotiorum): ≥ 80%
- inhibition of growth at 20 ppm [4]: ≥ 80%

Compound: C[C@H]1c2ccccc2[C@@H](c2cnn(C)c2Cl)CN1C(=O)c1cn(-c2ncc(F)cc2F)nn1 [Compound P-54, [(1S,4S)-4-(5-chloro-1-methyl-pyrazol-4-yl)-1-methyl-3,4-dihydro-1H-isoquinolin-2-yl]-[1-(3,5-difluoro-2-pyridyl)triazol-4-yl]methanone]
- control of Alternaria solani compared to untreated control (Alternaria solani): at least 80%
- inhibition of growth at 20 ppm (Botryotinia fuckeliana): ≥ 80%
- inhibition of growth at 20 ppm (Glomerella lagenarium): ≥ 80%
- control of Blumeria graminis f. sp. tritici compared to untreated control [1]: at least 80%
- inhibition of growth at 20 ppm (Fusarium culmorum): ≥ 80%
- control of Gibberella zeae compared to untreated control (Gibberella zeae): at least 80%
- control of Phaeosphaeria nodorum compared to untreated control (Phaeosphaeria nodorum): at least 80%
- inhibition of growth at 20 ppm (Monographella nivalis): ≥ 80%
- inhibition of growth at 20 ppm (Mycosphaerella arachidis): ≥ 80%
- control of Pyrenophora teres compared to untreated control (Pyrenophora teres): at least 80%
- inhibition of growth at 20 ppm [4]: ≥ 80%
